According to patent US20090093468A1, “Peptide Deformylase Inhibitors” (priority 2004, published 2009):
pIC50: −log10 of the molar value.

Experiments:
[1] = biological target: T1, bacterial PDF (peptide deformylase), enzyme from S. aureus (Staphylococcus aureus, UniProt P68826); assay: Bacterial peptide deformylase (PDF) assay, enzyme from S. aureus; format: biochemical; conditions: PDF enzyme from S. aureus; substrate f-Met-Ala; TNBS readout at 420 nm; read-out: IC50 (enzyme from S. aureus)
T1 sequence (P68826 1-183): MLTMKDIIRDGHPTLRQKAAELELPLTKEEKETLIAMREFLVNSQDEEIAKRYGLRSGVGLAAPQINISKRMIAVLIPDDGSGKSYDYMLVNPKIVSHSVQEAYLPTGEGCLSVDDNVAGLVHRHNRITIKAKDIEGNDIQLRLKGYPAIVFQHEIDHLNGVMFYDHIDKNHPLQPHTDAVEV
Protocol: (§1) The IC50 value of a compound of the invention as a bacterial PDF inhibitor was determined using the following assay.
(§2) Assay buffer (pH 7.2): 0.1 M MOPS pH was adjusted to 7.2 with NaOH, containing 0.25 M NaCl, 100 microgram/mL catalase and 1 mg/mL BSA.
(§3) Enzyme mix: 670 ng/mL of enzyme (to finally have 50 ng of enzyme per well).
(§4) Substrate: 10 mM f-Met-Ala was made up from 200 mM f-Met-Ala in methanol with assay buffer.
(§5) TNBS solution: Freshly dilute 1 M TNBS stock solution to 1:10 with water.
(§6) Buffer C: 0.5 M borate buffer adjusted to pH 9.5 with NaOH.
(§7) Buffer D: 0.2 ml of freshly prepared 0.5 M Na2SO3 was mixed with 9.8 mL of 0.5M NaH2PO4.
(§8) Inhibitor solution: 2 mM Sodium 4-(hydroxymercurio) benzoate in assay buffer.
(§9) The assay was performed in a 96 Microtiter plate containing test compound. To each well containing test compound mix was added 75 microliter of enzyme mix from E. coli followed, by the addition of 25 microliter of substrate mix. The resulting mix was incubated for 30 minutes at room temperature with shaking. TNBS solution (50 microliter/well) was added and the resulting mixture was incubated for 15 minutes under shaking. Buffer C was then added (20 microliter/well). After incubating at room temperature for 15 minutes under shaking, buffer D was added (50 microliter/well). The optical […] was then measured at 420 nm, thereby determining the IC50 value.
The assay was repeated using enzyme mix from S. aureus.

[2] = biological target: bacterial PDF (peptide deformylase), enzyme from E. coli (Escherichia coli, UniProt P0A6K3); assay: Bacterial peptide deformylase (PDF) assay, enzyme from E. coli; format: biochemical
Protocol: as §1, §2, §3, §4, §5, §6, §7, §8, §9

bacterial PDF (peptide deformylase), enzyme from E. coli, sequence (P0A6K3 whole entry): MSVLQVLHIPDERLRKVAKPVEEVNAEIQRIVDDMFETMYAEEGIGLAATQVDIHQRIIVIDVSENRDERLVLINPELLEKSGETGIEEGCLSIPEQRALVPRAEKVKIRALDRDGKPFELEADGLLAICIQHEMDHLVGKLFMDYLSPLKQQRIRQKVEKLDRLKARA

SMILES	pIC50 [1]	pIC50 [2]
O=C(CC1CNc2ccccc2S1)NO (stereo not shown) [Example 1, 2-(3,4-Dihydro-2H-benzo[1,4]thiazin-2-yl)-N-hydroxy-acetamide]	4.42	4.25
O=C(CC1CNc2ccccc2S1(=O)=O)NO (stereo not shown) [Example 2, 2-(1,1-Dioxo-1,2,3,4-tetrahydro-1λ^6-benzo[1,4]thiazin-2-yl)-N-hydroxy-acetamide]	5.82	5.47
CCN1CC(CC(=O)NO)Sc2ccccc21 (stereo not shown) [Example 3, 2-(4-Ethyl-3,4-dihydro-2H-benzo[1,4]thiazin-2-yl)-N-hydroxy-acetamide]	5.25	5.59
CCN1CC(CC(=O)NO)S(=O)(=O)c2ccccc21 (stereo not shown) [Example 4, 2-(4-Ethyl-1,1-dioxo-1,2,3,4-tetrahydro-1λ^6-benzo[1,4]thiazin-2-yl)-N-hydroxy-acetamide]	5.70	5.85
CCCN1CC(CC(=O)NO)Sc2ccccc21 (stereo not shown) [Example 5, N-Hydroxy-2-(4-propyl-3,4-dihydro-2H-benzo[1,4]thiazin-2-yl)-acetamide]	5.07	5.15
CCCN1CC(CC(=O)NO)S(=O)(=O)c2ccccc21 (stereo not shown) [Example 6, 2-(1,1-Dioxo-4-propyl-1,2,3,4-tetrahydro-1λ^6-benzo[1,4]thiazin-2-yl)-N-hydroxy-acetamide]	5.72	5.80
CCCCN1CC(CC(=O)NO)Sc2ccccc21 (stereo not shown) [Example 7, 2-(4-Butyl-3,4-dihydro-2H-benzo[1,4]thiazin-2-yl)-N-hydroxy-acetamide]	4.45	4.66
CCCCN1CC(CC(=O)NO)S(=O)(=O)c2ccccc21 (stereo not shown) [Example 8, 2-(4-Butyl-1,1-dioxo-1,2,3,4-tetrahydro-1λ^6-benzo[1,4]thiazin-2-yl)-N-hydroxy-acetamide]	5.09	5.06
O=C(CC1CN(Cc2ccccc2)c2ccccc2S1(=O)=O)NO (stereo not shown) [Example 9, 2-(4-Benzyl-1,1-dioxo-1,2,3,4-tetrahydro-1λ^6-benzo[1,4]thiazin-2-yl)-N-hydroxy-acetamide]	4.67	4.67
O=C(CC1CN(Cc2cccc(F)c2)c2ccccc2S1(=O)=O)NO (stereo not shown) [Example 10, 2-[4-(3-Fluoro-benzyl)-1,1-dioxo-1,2,3,4-tetrahydro-1λ^6-benzo[1,4]thiazin-2-yl]-N-hydroxy-acetamide]	4.55	4.56
CCN1CC(CC(=O)NO)S(=O)(=O)c2ccc(C(=O)NCc3ccccc3)cc21 (stereo not shown) [Example 11, 4-Ethyl-2-hydroxycarbamoylmethyl-1,1-dioxo-1,2,3,4-tetrahydro-1λ^6-benzo[1,4]thiazine-6-carboxylic acid benzylamide]	5.05	4.75
CCN1CC(CC(=O)NO)S(=O)(=O)c2ccc(C(=O)NCc3ccccc3F)cc21 (stereo not shown) [Example 12, 4-Ethyl-2-hydroxycarbamoylmethyl-1,1-dioxo-1,2,3,4-tetrahydro-1λ^6-benzo[1,4]thiazine-6-carboxylic acid 2-fluoro-benzylamide]	4.43	4.97
CCN1CC(CC(=O)NO)S(=O)(=O)c2ccc(C(=O)NCc3cccc(F)c3)cc21 (stereo not shown) [Example 13, 4-Ethyl-2-hydroxycarbamoylmethyl-1,1-dioxo-1,2,3,4-tetrahydro-1λ^6-benzo[1,4]thiazine-6-carboxylic acid 3-fluoro-benzylamide]	4.86	4.93
CCN1CC(CC(=O)NO)S(=O)(=O)c2ccc(C(=O)NCc3ccc(F)cc3)cc21 (stereo not shown) [Example 14, 4-Ethyl-2-hydroxycarbamoylmethyl-1,1-dioxo-1,2,3,4-tetrahydro-1λ^6-benzo[1,4]thiazine-6-carboxylic acid 4-fluoro-benzylamide]	5.00	4.98
CCN1CC(CC(=O)NO)S(=O)(=O)c2ccc(C(=O)NCc3ccccc3Br)cc21 (stereo not shown) [Example 15, 4-Ethyl-2-hydroxycarbamoylmethyl-1,1-dioxo-1,2,3,4-tetrahydro-1λ^6-benzo[1,4]thiazine-6-carboxylic acid 2-bromo-benzylamide]	5.02	4.70
CCN1CC(CC(=O)NO)S(=O)(=O)c2ccc(C(=O)NCc3cccc(Br)c3)cc21 (stereo not shown) [Example 16, 4-Ethyl-2-hydroxycarbamoylmethyl-1,1-dioxo-1,2,3,4-tetrahydro-1λ^6-benzo[1,4]thiazine-6-carboxylic acid 3-bromo-benzylamide]	5.01	5.70
CCN1CC(CC(=O)NO)S(=O)(=O)c2ccc(C(=O)NCc3ccc(Br)cc3)cc21 (stereo not shown) [Example 17, 4-Ethyl-2-hydroxycarbamoylmethyl-1,1-dioxo-1,2,3,4-tetrahydro-1λ^6-benzo[1,4]-thiazine-6-carboxylic acid 4-bromo-benzylamide]	5.47	5.82
CCN1CC(CC(=O)NO)S(=O)(=O)c2ccc(C(=O)NCc3ccccc3[N+](=O)[O-])cc21 (stereo not shown) [Example 18, 4-Ethyl-2-hydroxycarbamoylmethyl-1,1-dioxo-1,2,3,4-tetrahydro-1λ^6-benzo[1,4]thiazine-6-carboxylic acid 2-nitro-benzylamide]	4.95	4.75
CCN1CC(CC(=O)NO)S(=O)(=O)c2ccc(C(=O)NCc3cccc([N+](=O)[O-])c3)cc21 (stereo not shown) [Example 19, 4-Ethyl-2-hydroxycarbamoylmethyl-1,1-dioxo-1,2,3,4-tetrahydro-1λ^6-benzo[1,4]thiazine-6-carboxylic acid 3-nitro-benzylamide]	4.92	5.48
CCN1CC(CC(=O)NO)S(=O)(=O)c2ccc(C(=O)NCc3ccc([N+](=O)[O-])cc3)cc21 (stereo not shown) [Example 20, 4-Ethyl-2-hydroxycarbamoylmethyl-1,1-dioxo-1,2,3,4-tetrahydro-1λ^6-benzo[1,4]thiazine-6-carboxylic acid 4-nitro-benzylamide]	5.41	5.92
CCN1CC(CC(=O)NO)S(=O)(=O)c2ccc(C(=O)NCc3ccccc3OC)cc21 (stereo not shown) [Example 21, 4-Ethyl-2-hydroxycarbamoylmethyl-1,1-dioxo-1,2,3,4-tetrahydro-1λ^6-benzo[1,4]thiazine-6-carboxylic acid 2-methoxy-benzylamide]	5.82	5.82
CCN1CC(CC(=O)NO)S(=O)(=O)c2ccc(C(=O)NCc3cccc(OC)c3)cc21 (stereo not shown) [Example 22, 4-Ethyl-2-hydroxycarbamoylmethyl-1,1-dioxo-1,2,3,4-tetrahydro-1λ^6-benzo[1,4]thiazine-6-carboxylic acid 3-methoxy-benzylamide]	5.64	6.00
CCN1CC(CC(=O)NO)S(=O)(=O)c2ccc(C(=O)NCc3ccc(OC)cc3)cc21 (stereo not shown) [Example 23, 4-Ethyl-2-hydroxycarbamoylmethyl-1,1-dioxo-1,2,3,4-tetrahydro-1λ^6-benzo[1,4]thiazine-6-carboxylic acid 4-methoxy-benzylamide]	4.88	5.31
CCN1CC(CC(=O)NO)S(=O)(=O)c2ccc(C(=O)NCc3cccc(C(F)(F)F)c3)cc21 (stereo not shown) [Example 24, 4-Ethyl-2-hydroxycarbamoylmethyl-1,1-dioxo-1,2,3,4-tetrahydro-1λ^6-benzo[1,4]thiazine-6-carboxylic acid 3-trifluoromethyl-benzylamide]	5.08	5.70
CCN1CC(CC(=O)NO)S(=O)(=O)c2ccc(C(=O)NCc3ccc(C(F)(F)F)cc3)cc21 (stereo not shown) [Example 25, 4-Ethyl-2-hydroxycarbamoylmethyl-1,1-dioxo-1,2,3,4-tetrahydro-1λ^6-benzo[1,4]thiazine-6-carboxylic acid 4-trifluoromethyl-benzylamide]	5.38	–
CCN1CC(CC(=O)NO)S(=O)(=O)c2ccc(C(=O)NCc3ccc(OC(F)(F)F)cc3)cc21 (stereo not shown) [Example 26, 4-Ethyl-2-hydroxycarbamoylmethyl-1,1-dioxo-1,2,3,4-tetrahydro-1λ^6-benzo[1,4]thiazine-6-carboxylic acid 4-trifluoromethoxybenzylamide]	5.30	5.96
CCN1CC(CC(=O)NO)S(=O)(=O)c2ccc(C(=O)NCc3ccc(N(C)C)cc3)cc21 (stereo not shown) [Example 27, 4-Ethyl-2-hydroxycarbamoylmethyl-1,1-dioxo-1,2,3,4-tetrahydro-1λ^6-benzo[1,4]thiazine-6-carboxylic acid 4-dimethylaminobenzylamide]	4.74	5.03
CCN1CC(CC(=O)NO)S(=O)(=O)c2ccc(C(=O)NCc3ccncc3)cc21 (stereo not shown) [Example 28, 4-Ethyl-2-hydroxycarbamoylmethyl-1,1-dioxo-1,2,3,4-tetrahydro-1λ^6-benzo[1,4]thiazine-6-carboxylic acid (pyridin-4-ylmethyl)-amide]	4.15	< 3.70
